Test results taken from ChEMBL document CHEMBL3991601, “The target landscape of clinical kinase drugs” (Science, 2017).
The source made the active and inactive calls. Cut-off read from the data, not from the text of the source, for most assays here: actives have a measured Kd and inactives only a lower limit.

Experiments:
Activin receptor type-1B = target: T1, Activin receptor type-1B (Homo sapiens, UniProt P36896)
T1 sequence (P36896 whole entry): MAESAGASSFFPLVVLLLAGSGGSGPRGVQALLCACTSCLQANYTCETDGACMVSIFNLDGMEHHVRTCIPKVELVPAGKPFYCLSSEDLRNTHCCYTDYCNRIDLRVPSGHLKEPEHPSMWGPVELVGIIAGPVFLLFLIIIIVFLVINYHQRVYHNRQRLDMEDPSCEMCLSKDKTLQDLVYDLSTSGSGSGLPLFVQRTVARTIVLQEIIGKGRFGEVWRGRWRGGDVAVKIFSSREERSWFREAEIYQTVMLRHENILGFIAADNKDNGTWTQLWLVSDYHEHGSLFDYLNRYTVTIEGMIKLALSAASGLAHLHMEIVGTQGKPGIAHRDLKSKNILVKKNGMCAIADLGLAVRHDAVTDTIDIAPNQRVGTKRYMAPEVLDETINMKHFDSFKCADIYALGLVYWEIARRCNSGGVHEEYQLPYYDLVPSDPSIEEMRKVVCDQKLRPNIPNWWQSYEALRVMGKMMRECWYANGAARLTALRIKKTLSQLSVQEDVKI

[1] = target: T2, Succinate--CoA ligase [ADP-forming] subunit beta, mitochondrial (Homo sapiens, UniProt Q9P2R7)
T2 sequence (Q9P2R7 whole entry): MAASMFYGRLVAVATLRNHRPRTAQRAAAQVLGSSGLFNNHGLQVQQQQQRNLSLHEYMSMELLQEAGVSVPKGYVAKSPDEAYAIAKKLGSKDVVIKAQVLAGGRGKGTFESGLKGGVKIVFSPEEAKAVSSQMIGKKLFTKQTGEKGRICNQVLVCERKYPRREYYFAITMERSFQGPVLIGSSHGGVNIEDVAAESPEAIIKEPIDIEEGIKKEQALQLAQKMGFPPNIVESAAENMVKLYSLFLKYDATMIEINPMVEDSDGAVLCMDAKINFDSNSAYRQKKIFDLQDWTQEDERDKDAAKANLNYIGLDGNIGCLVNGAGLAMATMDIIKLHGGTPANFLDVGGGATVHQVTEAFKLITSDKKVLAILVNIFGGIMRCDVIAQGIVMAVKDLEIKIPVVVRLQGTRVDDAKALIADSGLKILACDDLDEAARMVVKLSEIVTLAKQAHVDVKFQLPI

[2] = target: Calcium/calmodulin-dependent protein kinase type II subunit gamma (Homo sapiens, UniProt Q13555)
Chain of Calcium/calmodulin-dependent protein kinase type II subunit gamma (Q13555 whole entry): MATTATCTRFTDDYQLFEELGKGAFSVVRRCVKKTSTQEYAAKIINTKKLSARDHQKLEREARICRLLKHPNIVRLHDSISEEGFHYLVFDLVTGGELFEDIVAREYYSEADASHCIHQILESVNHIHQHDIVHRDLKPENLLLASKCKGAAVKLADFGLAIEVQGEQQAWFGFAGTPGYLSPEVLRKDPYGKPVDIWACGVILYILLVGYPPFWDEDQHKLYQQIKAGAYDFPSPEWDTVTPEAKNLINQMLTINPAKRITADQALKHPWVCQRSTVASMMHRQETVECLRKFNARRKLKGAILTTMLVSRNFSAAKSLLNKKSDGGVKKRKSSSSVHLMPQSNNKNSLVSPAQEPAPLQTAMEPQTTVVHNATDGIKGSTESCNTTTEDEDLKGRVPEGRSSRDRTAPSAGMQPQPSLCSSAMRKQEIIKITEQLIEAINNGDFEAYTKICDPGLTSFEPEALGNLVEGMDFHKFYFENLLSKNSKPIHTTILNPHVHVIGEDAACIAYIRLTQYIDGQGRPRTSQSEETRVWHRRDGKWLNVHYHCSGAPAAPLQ

[3] = target: Cyclin-dependent kinase 3 (Homo sapiens, UniProt Q00526)
Chain of Cyclin-dependent kinase 3 (Q00526 whole entry): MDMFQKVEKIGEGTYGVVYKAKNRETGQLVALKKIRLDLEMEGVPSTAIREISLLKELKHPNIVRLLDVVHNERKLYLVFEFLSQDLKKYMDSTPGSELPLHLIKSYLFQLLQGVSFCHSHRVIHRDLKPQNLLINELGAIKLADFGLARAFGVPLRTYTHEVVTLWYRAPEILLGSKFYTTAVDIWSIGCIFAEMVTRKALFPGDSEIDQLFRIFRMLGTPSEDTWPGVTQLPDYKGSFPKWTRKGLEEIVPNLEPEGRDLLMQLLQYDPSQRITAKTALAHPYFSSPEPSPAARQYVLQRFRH

[4] = target: T3, ATP-dependent RNA helicase DDX42 (Homo sapiens, UniProt Q86XP3)
T3 sequence (Q86XP3 whole entry): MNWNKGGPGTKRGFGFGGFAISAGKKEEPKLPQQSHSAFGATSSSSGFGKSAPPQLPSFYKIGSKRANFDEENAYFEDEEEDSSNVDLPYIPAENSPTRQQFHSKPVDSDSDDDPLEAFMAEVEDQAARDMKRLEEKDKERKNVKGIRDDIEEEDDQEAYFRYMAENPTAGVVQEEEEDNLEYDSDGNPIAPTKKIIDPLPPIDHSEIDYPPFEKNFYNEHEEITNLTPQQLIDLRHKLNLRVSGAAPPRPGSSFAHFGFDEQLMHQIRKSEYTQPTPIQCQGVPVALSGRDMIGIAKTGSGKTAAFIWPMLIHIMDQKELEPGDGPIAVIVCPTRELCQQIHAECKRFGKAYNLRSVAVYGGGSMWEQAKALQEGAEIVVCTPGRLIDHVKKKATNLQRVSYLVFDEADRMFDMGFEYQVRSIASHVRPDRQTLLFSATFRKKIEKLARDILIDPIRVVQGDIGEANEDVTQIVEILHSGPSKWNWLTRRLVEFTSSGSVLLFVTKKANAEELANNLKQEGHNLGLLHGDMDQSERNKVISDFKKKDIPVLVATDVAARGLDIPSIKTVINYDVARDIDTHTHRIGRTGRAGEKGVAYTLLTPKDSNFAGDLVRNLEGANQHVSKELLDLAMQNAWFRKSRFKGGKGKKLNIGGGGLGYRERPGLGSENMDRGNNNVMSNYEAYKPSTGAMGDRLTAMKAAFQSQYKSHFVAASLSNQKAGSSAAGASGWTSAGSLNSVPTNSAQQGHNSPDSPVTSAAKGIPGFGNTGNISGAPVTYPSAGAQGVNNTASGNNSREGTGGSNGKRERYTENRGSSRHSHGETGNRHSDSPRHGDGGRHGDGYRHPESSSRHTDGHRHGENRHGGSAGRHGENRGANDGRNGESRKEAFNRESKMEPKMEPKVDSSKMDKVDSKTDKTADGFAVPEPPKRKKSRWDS

[5] = target: Adenylate kinase 2, mitochondrial (Homo sapiens, UniProt P54819)
[6] = target: T4, Serine/threonine-protein kinase TAO3 (Homo sapiens, UniProt Q9H2K8)
T4 sequence (Q9H2K8 whole entry): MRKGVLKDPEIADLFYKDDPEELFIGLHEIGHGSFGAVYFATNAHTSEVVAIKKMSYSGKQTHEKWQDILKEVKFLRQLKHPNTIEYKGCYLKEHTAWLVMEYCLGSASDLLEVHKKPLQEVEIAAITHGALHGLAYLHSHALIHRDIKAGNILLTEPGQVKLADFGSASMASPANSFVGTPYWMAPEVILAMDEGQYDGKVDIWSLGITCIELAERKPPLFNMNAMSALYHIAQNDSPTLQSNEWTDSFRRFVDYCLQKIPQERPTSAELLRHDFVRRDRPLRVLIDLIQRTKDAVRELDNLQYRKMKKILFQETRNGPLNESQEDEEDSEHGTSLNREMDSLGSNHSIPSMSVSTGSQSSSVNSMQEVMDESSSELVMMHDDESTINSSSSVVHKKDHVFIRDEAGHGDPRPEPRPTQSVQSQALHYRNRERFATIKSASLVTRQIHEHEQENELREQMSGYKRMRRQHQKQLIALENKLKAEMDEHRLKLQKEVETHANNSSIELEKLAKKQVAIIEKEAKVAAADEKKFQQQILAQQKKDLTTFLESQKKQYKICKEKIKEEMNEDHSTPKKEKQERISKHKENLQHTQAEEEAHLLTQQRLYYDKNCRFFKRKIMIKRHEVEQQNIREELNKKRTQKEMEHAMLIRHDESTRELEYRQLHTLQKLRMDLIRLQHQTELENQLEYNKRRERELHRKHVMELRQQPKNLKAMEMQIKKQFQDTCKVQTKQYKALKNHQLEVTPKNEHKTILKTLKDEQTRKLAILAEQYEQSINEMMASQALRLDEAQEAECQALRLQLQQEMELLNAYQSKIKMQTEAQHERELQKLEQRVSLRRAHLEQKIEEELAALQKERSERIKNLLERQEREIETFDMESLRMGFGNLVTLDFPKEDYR
Note: in the data inactive means no Kd found up to 30 µM.

Kd (Activin receptor type-1B)	Kd [1]	Kd [2]	Kd [3]	Kd [4]	Kd [5]	Kd [6]	Compound
> 30 µM (inactive)	> 30 µM (inactive)	> 30 µM (inactive)	> 30 µM (inactive)	> 30 µM (inactive)	> 30 µM (inactive)	> 30 µM (inactive)	CC[C@H](Nc1ncnc2[nH]cnc12)c1nc2cccc(F)c2c(=O)n1-c1ccccc1 [IDELALISIB]
> 30 µM (inactive)	> 30 µM (inactive)	> 30 µM (inactive)	> 30 µM (inactive)	> 30 µM (inactive)	> 30 µM (inactive)	> 30 µM (inactive)	Cn1cc(-c2ccc3nnc(C(F)(F)c4ccc5ncccc5c4)n3n2)cn1 [JNJ-38877605]
> 30 µM (inactive)	> 30 µM (inactive)	> 30 µM (inactive)	> 30 µM (inactive)	> 30 µM (inactive)	> 30 µM (inactive)	> 30 µM (inactive)	Cc1c(F)cc(C(=O)NC2CC2)cc1-c1ccc(C(=O)NCC(C)(C)C)cn1 [LOSMAPIMOD]
> 30 µM (inactive)	> 30 µM (inactive)	> 30 µM (inactive)	> 30 µM (inactive)	> 30 µM (inactive)	> 30 µM (inactive)	> 30 µM (inactive)	Cn1cc(-c2ccc(F)c(C(F)(F)F)c2)nc1C1CCN(c2ncnc3[nH]ncc23)CC1 [LY-2584702]
0.425 µM (active)	> 30 µM (inactive)	> 30 µM (inactive)	> 30 µM (inactive)	> 30 µM (inactive)	> 30 µM (inactive)	> 30 µM (inactive)	O=C(O)[C@]1(Cc2cccc(Nc3nccs3)n2)CC[C@@H](Oc2cccc(Cl)c2F)CC1 [MK-5108]
> 30 µM (inactive)	> 30 µM (inactive)	> 30 µM (inactive)	> 30 µM (inactive)	> 30 µM (inactive)	> 30 µM (inactive)	> 30 µM (inactive)	C1=C/COCc2cc(ccc2OCCN2CCCC2)Nc2nccc(n2)-c2cccc(c2)COC/1 [PACRITINIB]
> 30 µM (inactive)	> 30 µM (inactive)	> 30 µM (inactive)	> 30 µM (inactive)	> 30 µM (inactive)	> 30 µM (inactive)	> 30 µM (inactive)	OCCn1cc(-c2cnc3nnn(Cc4ccc5ncccc5c4)c3n2)cn1 [PF-04217903]
> 30 µM (inactive)	> 30 µM (inactive)	> 30 µM (inactive)	> 30 µM (inactive)	> 30 µM (inactive)	> 30 µM (inactive)	> 30 µM (inactive)	CNC(=O)c1ccc(C)c(-n2c(C)cc(OCc3ccc(F)cc3F)c(Br)c2=O)c1 [PH-797804]
> 30 µM (inactive)	> 30 µM (inactive)	> 30 µM (inactive)	> 30 µM (inactive)	> 30 µM (inactive)	> 30 µM (inactive)	> 30 µM (inactive)	CNC(=O)c1cc(Oc2ccc(NC(=O)Nc3ccc(Cl)c(C(F)(F)F)c3)c(F)c2)ccn1 [REGORAFENIB]
> 30 µM (inactive)	> 30 µM (inactive)	0.247 µM (active)	> 30 µM (inactive)	> 30 µM (inactive)	> 30 µM (inactive)	> 30 µM (inactive)	CN(C)C(=O)c1cc2cnc(Nc3ccc(N4CCNCC4)cn3)nc2n1C1CCCC1 [RIBOCICLIB]
> 30 µM (inactive)	> 30 µM (inactive)	> 30 µM (inactive)	> 30 µM (inactive)	> 30 µM (inactive)	> 30 µM (inactive)	> 30 µM (inactive)	CNC(=O)CN1CCC(Oc2cc3c(Nc4cccc(Cl)c4F)ncnc3cc2OC)CC1 [SAPITINIB]
> 30 µM (inactive)	> 30 µM (inactive)	> 30 µM (inactive)	> 30 µM (inactive)	> 30 µM (inactive)	> 30 µM (inactive)	> 30 µM (inactive)	CN1CCC(CNc2ccc3ncc(-c4cccc(OC(F)(F)F)c4)n3n2)CC1 [SGI-1776]
> 30 µM (inactive)	> 30 µM (inactive)	> 30 µM (inactive)	> 30 µM (inactive)	> 30 µM (inactive)	> 30 µM (inactive)	> 30 µM (inactive)	O=c1sn(-c2cccc3ccccc23)c(=O)n1Cc1ccccc1 [TIDEGLUSIB]
> 30 µM (inactive)	> 30 µM (inactive)	> 30 µM (inactive)	> 30 µM (inactive)	> 30 µM (inactive)	> 30 µM (inactive)	> 30 µM (inactive)	COc1cc2nccc(Oc3ccc(NC(=O)Nc4cc(C)on4)c(Cl)c3)c2cc1OC [TIVOZANIB]

Compound	Kd (Activin receptor type-1B)	Kd [1]	Kd [2]	Kd [3]	Kd [4]	Kd [5]	Kd [6]
COC(=O)[C@@]1(O)C[C@H]2O[C@]1(C)n1c3ccccc3c3c4c(c5c6ccccc6n2c5c31)C(=O)NC4 [K-252A]	15.3 µM (active)	> 30 µM (inactive)	0.173 µM (active)	0.032 µM (active)	> 30 µM (inactive)	> 30 µM (inactive)	> 30 µM (inactive)
Cc1ccc(-n2nc(C(C)(C)C)cc2NC(=O)NCc2cc(F)ccc2Oc2ccc3c(cnn3CCO)c2)cc1 [PEXMETINIB]	> 30 µM (inactive)	> 30 µM (inactive)	> 30 µM (inactive)	> 30 µM (inactive)	> 30 µM (inactive)	> 30 µM (inactive)	> 30 µM (inactive)
CN1CCC(COc2cnc(-c3cccc(Cn4nc(-c5cccc(C#N)c5)ccc4=O)c3)nc2)CC1 [TEPOTINIB]	> 30 µM (inactive)	> 30 µM (inactive)	> 30 µM (inactive)	> 30 µM (inactive)	> 30 µM (inactive)	> 30 µM (inactive)	> 30 µM (inactive)
